The test system of this test is beta-TC6 cells. The experiment in a line: Insulin HTRF assay (relative activity Ar) in beta-TC6 cells. The test is classed as cell-based, mouse. The conditions noted are these: Mus musculus, Beta-TC6, 4 h, insulin HTRF, supernatant of beta-TC6 cells, incubation with test compound at 37°C for 2, 3, 4h; read-out: Ar (relative activity). In outline:
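beta-TC6 cells (15k/well, seeded 24 or 48 h) washed, then exposed to compound in induction buffer (0.5% DMSO final) for 2, 3 or 4 h at 37°C.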

For the compound `COc1ccc(Nc2cc3c(cn2)nc(-c2ccccc2)n3C)c(OC)c1` [Compound 703, N-(2,4-dimethoxyphenyl)-1-methyl-2-phenyl-imidazo[4,5-c]pyridin-6-amine], the Emax was 30 to 50%.
On to `CNc1nc2cnc(-c3cccc(N)c3)cc2n1Cc1ccc(OC)c(OC)c1` [Compound 659, 6-(3-aminophenyl)-1-[(3,4-dimethoxyphenyl)methyl]-N-methyl-imidazo[4,5-c]pyridin-2-amine], for which the Emax lay in the range of 30 to 50%.
Take `Cn1c(-c2ccsc2)cc2c(Nc3ccc(S(C)(=O)=O)cc3)nccc21` [Compound 289, 1-methyl-N-(4-methylsulfonylphenyl)-2-(3-thienyl)pyrrolo[3,2-c]pyridin-4-amine]: the Emax was in the range of 30 to 50%.
In the case of `Cn1c(-c2cccnc2)cc2cnc(N3CCOCC3)cc21` [Compound 94, 4-[1-methyl-2-(3-pyridyl)pyrrolo[3,2-c]pyridin-6-yl]morpholine] it was 30 to 50%.
In the case of `FC(F)(F)Oc1cccc(-c2nc3c(NCc4ccccn4)nccc3[nH]2)c1` [Compound 445, N-(2-pyridylmethyl)-2-[3-(trifluoromethoxy)phenyl]-1H-imidazo[4,5-c]pyridin-4-amine], the Emax lay within 30 to 50%.
The value for `COc1ccc(Nc2cc3c(cn2)nc(NCc2cccc(C)c2)n3C)cc1OC` [Compound 578, N6-(3,4-dimethoxyphenyl)-1-methyl-N2-(m-tolylmethyl)imidazo[4,5-c]pyridine-2,6-diamine] was 50 to 100%.
In the case of `CC(=O)Nc1ccc(-c2cc3c(cn2)ncn3-c2cccc(F)c2)cc1` [Compound 761, N-[4-[1-(3-fluorophenyl)imidazo[4,5-c]pyridin-6-yl]phenyl]acetamide] it was 0 to 30%.
For `CC(=O)N(C)c1cccc(-c2cc3cnc(Nc4ccc(C#N)cc4)cc3n2C)c1` [Compound 168, N-[3-[6-(4-cyanoanilino)-1-methyl-pyrrolo[3,2-c]pyridin-2-yl]phenyl]-N-methyl-acetamide], the Emax lay in the range of 30 to 50%.
Consider `COc1ccc(OC)c(CCNc2nc3cnc(-c4cccs4)cc3n2C)c1` [Compound 595, N-[2-(2,5-dimethoxyphenyl)ethyl]-1-methyl-6-(2-thienyl)imidazo[4,5-c]pyridin-2-amine], for which the Emax was in the range of 30 to 50%.
The value for `CCN(CC)CCNC(=O)c1ccc(Nc2nccc3[nH]c(-c4cccnc4)nc23)cc1` [Compound 359, N-(2-diethylaminoethyl)-4-[[2-(3-pyridyl)-1H-imidazo[4,5-c]pyridin-4-yl]amino]benzamide] was 30 to 50%.
In the case of `CN(C)C(=O)c1ccc(Nc2cc3c(cn2)nc(NCc2ccccc2)n3C)cc1` [Compound 626, 4-[[2-(benzylamino)-1-methyl-imidazo[4,5-c]pyridin-6-yl]amino]-N,N-dimethyl-benzamide], the Emax fell in the range of 30 to 50%.
In the case of `COc1ccc(Nc2cc3c(cn2)nc(Nc2ccccc2)n3C)cc1OC` [Compound 632, N6-(3,4-dimethoxyphenyl)-1-methyl-N2-phenyl-imidazo[4,5-c]pyridine-2,6-diamine] it was 50 to 100%.
The value for `CC(=O)c1cccc(Nc2cc3[nH]c(-c4ccc(C(=O)N(C)C)cc4)cc3cn2)c1` [Compound 42, 4-[6-(3-acetylanilino)-1H-pyrrolo[3,2-c]pyridin-2-yl]-N,N-dimethyl-benzamide] was 50 to 100%; that for `CC(=O)N(C)c1cccc(-c2cc3cnc(Nc4ccc(S(C)(=O)=O)cc4)cc3n2C)c1` [Compound 173, N-methyl-N-[3-[1-methyl-6-(4-methylsulfonylanilino)pyrrolo[3,2-c]pyridin-2-yl]phenyl]acetamide] was 30 to 50%.
The value for `CNc1nc2cnc(Nc3ccc(OC(C)C)cc3)cc2n1CCOC` [Compound 500, N6-(4-isopropoxyphenyl)-1-(2-methoxyethyl)-N2-methyl-imidazo[4,5-c]pyridine-2,6-diamine] was 50 to 100%.
With `CCN(CC)CCNC(=O)c1ccc(Nc2nccc3[nH]c(-c4ccc(C)cc4)nc23)cc1` [Compound 381, N-(2-diethylaminoethyl)-4-[[2-(p-tolyl)-1H-imidazo[4,5-c]pyridin-4-yl]amino]benzamide], the Emax fell in the range of 50 to 100%.

(Values after patent EP2818472A1, “Imidazo[4,5-c]pyridine and pyrrolo[3,2-c]pyridine compounds as G-protein-coupled receptor kinase 5 (GRK5) modulators” (Max-Planck-Gesellschaft zur Förderung der Wissenschaften …, priority 2013, dated 2014).)
